Data reported in US6271342A, “Sugar-modified cytostatics” (Bayer Aktiengesellschaft, priority 1995, dated 2001).
Converted amounts (≈) assume the structure as drawn. “And” between values parts separate entries of the source, which are not always exact repeats. Equal entries are not always repeated.

What was measured:
SW 480 [1] = experiment: Growth inhibition test (MTT) for cytotoxic properties; format: cell-based, human; conditions: Table 1b
In short: (§1)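 IC50 values come from an MTT read at 540 nm (5 h at 37 °C, 5 mg/ml MTT stock), taken on day 3 and day 6. Cells (HT 29, SW 480; 50,000 cells/ml in RPMI/10% FCS) were pre-cultured 1 day, then compound in DMSO was added.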

HT 29 [2] = experiment: as above; format: cell-based, human; conditions: Table 1b
In short: as §1

B 16 F 10 = experiment: Growth inhibition test (MTT) for cytotoxic properties; format: cell-based, mouse; conditions: Table 1b
In short: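 Cells in RPMI 1640 with 10% FCS pre-cultured 1 day at 37° C, then exposed to test substances in DMSO; growth checked after day 3 and day 6. Read-out by MTT, 5 h incubation, isopropanol solubilization, extinction at 540 nm.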

[3] = Cleavage kinetics with human blood (HPLC); format: in vitro ADME; conditions: Table 2b; 37° C.
Source text: In Vitro Investigation of the Cleavability of the Glycoconjugates
Cleavage Kinetics With Human Blood

[4] = test system: bone marrow parent cells of the mouse; experiment: CSF-induced proliferation of bone marrow parent cells, in vitro; format: cell-based; conditions: recombinant murine GM-CSF, 7 days
Description: Bone marrow cells are flushed out of the femur of mice. 10^5 cells are incubated in McCoy SA medium (0.3% agar) together with recombinant murine GM-CSF (Genzyme; parent cell colony formation) and the substances (10^-4 to 100 μg/ml) at 37° C. and 7% CO2. 7 days later, the colonies ([…]) and clusters (17-50 cells) are counted.

SW 480 [5] = experiment: Two-layer soft agar culture of human tumour xenografts; format: cell-based; conditions: T/C ≤30%
Description: (§2) The in vitro activity of glycoconjugates of quinolone-a was determined on human tumour xenografts in a two-layer soft agar culture system according to Hamburger and Salmon (Science 197: 461-463).
(§3) The solid tumours were initially grown in the athymic naked mouse (NMRI nu/nu), obtained by surgery and comminuted mechanically. Individual cells were then obtained by incubation in an enzyme mixture of collagenase 0.05%, DNAse 0.07% and hyaluronidase 0.1% in RPMI at 37° C. for 30 minutes. The cells were washed 2× and then passed through a sieve of 200 μm and 20 μm mesh width.
(§4) The base layer comprises 0.2 ml of Iscoves's Modified Dulbeccos Medium with 20% foetal calf serum and 0.7% agar. 40,000 to 200,000 cells in 0.2 ml of the same medium and 0.4% agar were applied to this layer in 24 multiwell plates. The cytostatic substances were added in 0.2 ml of medium.
(§5) The cultures were incubated at 37° C. in a 7% CO2 atmosphere for 6 to 15 days. The colonies which had grown were then counted under an inverting microscope, the living colonies being stained with a tetrazolium chloride dyestuff 24 hours before the evaluation.
(§6) The effect of the active compound is expressed in per cent of surviving colonies compared with the colony count of untreated plates (T/C=colony count treated×100/control count untreated).
(§7) A substance is active if the T/C value is ≤30%.
(§8) This value is shown as the IC70 value in μg/ml in Table 8.

OVXF 899 = experiment: as above; format: cell-based; conditions: T/C ≤30%
Description: as §2, §3, §4, §5, §6, §7, §8

LXFS 538 = experiment: as above; format: cell-based; conditions: T/C ≤30%
Description: as §2, §3, §4, §5, §6, §7, §8

OVXF 1023 = experiment: as above; format: cell-based; conditions: T/C ≤30%
Description: as §2, §3, §4, §5, §6, §7, §8

MEXF 989 = experiment: as above; format: cell-based; conditions: T/C ≤30%
Description: as §2, §3, §4, §5, §6, §7, §8

CXF 280 = experiment: as above; format: cell-based; conditions: T/C ≤30%
Description: as §2, §3, §4, §5, §6, §7, §8

LXFL 529 = experiment: as above; format: cell-based; conditions: T/C ≤30%
Description: as §2, §3, §4, §5, §6, §7, §8

HT 29 [6] = experiment: as above; format: cell-based; conditions: T/C ≤30%
Description: as §2, §3, §4, §5, §6, §7, §8

[7] = test system: large-cell lung carcinoma LXFL 529; experiment: In vivo inhibition of tumour growth using a naked mouse model; design: species or system Athymic naked mice (NMRI nu/nu strain)
Source text: Athymic naked mice (NMRI nu/nu strain) were used for all the in vivo experiments for investigation of the inhibition of tumour growth. The large-cell lung carcinoma LXFL 529 selected was developed by serial passage in naked mice.
The tumour was implanted subcutaneously in both flanks of nu/nu naked mice 6 to 8 weeks old. Treatment was started, regardless of the doubling time, as soon as the tumours had reached a diameter of 5-7 mm. The mice were allocated to the treatment group and the control group (5 mice per group with 8-10 evaluable tumours) by randomization. The individual tumours of the control group all grew progressively.
The size of the tumours was measured in two dimensions by means of a sliding gauge. The tumour volume, which correlates well with the cell count, was then used for all the evaluations. The volume was calculated according to the equation "length×breadth×breadth/2" ([a×b^2 ]/2, a and b represent two diameters at right angles). The values of the relative tumour volume (RTV) were calculated for each individual tumour by dividing the tumour size on day X with the tumour size on day 0 (at the time of randomization). The mean RTV values were then used for the further evaluation.
The inhibition of the increase in the tumour volume (tumor volume of the test group/control group, T/C, in per cent) was the concluding measurement value.
All the compounds were administered according to an intermittent plan in each case on day 1, 5 and 9. Furthermore, all the compounds were administered intraperitoneally (i.p.) using water as the solvent.

tumour cell lines = experiment: Growth inhibition test, carbohydrate-free comparison compounds (cell line not stated); format: cell-based
Description: The human colon cell lines SW 480 and HT 29 (ATCC no. CCL 228 and HBT-38) and the mouse melanoma cell line B 16 F 10 were cultured in Roux dishes in RPMI 1640 medium with addition of 10% FCS. The cultures were then trypsinized and taken up in RPMI plus 10% FCS to a cell count of 50,000 cells/ml. 100 μl of cell suspension/well were introduced into a 96 microwell plate and incubated for 1 day at 37° C. in a CO2 incubating cabinet. A further 100 μl of RPMI medium and 1 μl of dimethyl sulphoxide with the test substances were then added. The growth was checked after day 3 and day 6. 40 μl of MTT solution (3-(4,5-dimethylthiazol-2-yl)-2,5-diphenyltetrazoline bromide) with an initial concentration of 5 mg/ml of H2 O were added to each microwave. The plate was incubated for 5 hours in a CO2 incubating cabinet at 37° C. The medium was then sucked off and 100 μl of i-propanol/well were added. After shaking for 30 minutes with 100 μl of H2 O, the extinction was measured at 540 nm with a Titertek Multiskan MCC/340 (Flow).

Description for SW-480: Cleavage Kinetics With Cells
(§9) 2.25 ml of PBS are incubated together with 225 μl of a cell suspension (30 mg/ml) and 25 μl of substrate stock solution (1 mg/ml in 3% dimethyl sulphoxide in PBS) at 37° C. After 1 hour and 24 hours, samples of in each case 1 ml are taken, mixed with 1 ml of ethanol and left to stand at 4° C. for 20 minutes. After centrifugation (5 minutes at 3500 rpm), 100 μl of supernatant are taken for the HPLC analysis.
Description for hepatoma: Cleavage Kinetics With Cells
as §9

## COC1C(O)C(C)OC(Oc2ccc(NC(=S)NCCCCC(NC(=S)Nc3ccc(OC4OC(C)C(O)C(OC)C4O)cc3)C(=O)NC3C=CCC4CN(c5c(F)cc6c(=O)c(C(=O)O)cn(C7CC7)c6c5Cl)CC43)cc2)C1O (mixture of isomers) [Example 11.7, N-{N^α,N^ε -Bis-[O-(3--methyl-β-L-fucosyl)-4-hydroxy-phenylamino-thiocarbonyl]-D -lysyl}-quinolone-a]
SW-480
  % cleavage in SW-480 1 hour: 0%
  % cleavage in SW-480 24 hours: 0%
SW 480 [1]
  IC50: 12 µM
HT 29 [2]
  IC50: 13 µM
hepatoma
  % cleavage in hepatoma 1 hour: 0%
  % cleavage in hepatoma 24 hours: 0%
B 16 F 10
  IC50: 15 µM
[3]
  % cleavage in human blood 1 hour: 0%
  % cleavage in human blood 24 hours: 0%
[4]
  IC50 [μg/ml] CSF-induced proliferation of bone marrow parent cells of the mouse: 2.9 µg/mL
SW 480 [5]
  IC70 /μg/ml: 18 µg/mL
OVXF 899
  IC70 /μg/ml: 234 µg/mL
LXFS 538
  IC70 /μg/ml: 18 µg/mL
OVXF 1023
  IC70 /μg/ml: 136 µg/mL
MEXF 989
  IC70 /μg/ml: 3 µg/mL
CXF 280
  IC70 /μg/ml: > 100 µg/mL
LXFL 529
  IC70 /μg/ml: 4 µg/mL
HT 29 [6]
  IC70 /μg/ml: 56 µg/mL

## CC1OC(Oc2ccc(NC(=S)NC(CCCCN)C(=O)NC3C=CCC4CN(c5c(F)cc6c(=O)c(C(=O)[O-])cn(C7CC7)c6c5Cl)CC43)cc2)C(O)C(OCC(=O)[O-])C1O.[Na+].[Na+] (mixture of isomers) [Example 12.6, N-{N^α -[O-(3-O-Carboxymethyl-β-L-fucosyl)-4-hydroxy-phenylamino-thiocarbonyl]-lysyl}-quinolone-a, di-sodium salt]
SW 480 [1]
  IC50: 4 µM
HT 29 [2]
  IC50: 7 µM
B 16 F 10
  IC50: 0.3 µM
[4]
  IC50 [μg/ml] CSF-induced proliferation of bone marrow parent cells of the mouse: 0.3 µg/mL
[7]; i.p. in water on day 1, 5 and 9
  Dose [mg/kg/day], maximum tolerated dose (MTD): 100 mg/kg/day
[7]; individual mice, treated at MTD i.p. on day 1, 5 and 9, di-sodium salt
  Survival time: 23 days and > 26 days and 26 days
[7]; on day 19, treated at MTD i.p. on day 1, 5 and 9
  Relative tumour volume [% of day 0]: 300.7 % of day 0
[7]; on day 19, tumour volume of test group/control group
  Optimum T/C: 19.4%

## CO[C@H]1[C@H](O)[C@@H](Oc2ccc(NC(=S)N[C@H](C)C(=O)NC3C=CCC4CN(c5c(F)cc6c(=O)c(C(=O)O)cn(C7CC7)c6c5Cl)CC43)cc2)O[C@@H](C)[C@H]1O (stereo partly drawn) [Example 12.1, N-{N'-[O-(3-O-Methyl-β-L-fucosyl)-4hydroxy-phenylamino-thiocarbonyl]-D -alanyl}-quinolone-a]
SW-480
  % cleavage in SW-480 1 hour: 0%
  % cleavage in SW-480 24 hours: 0%
SW 480 [1]
  IC50: 1 µM
HT 29 [2]
  IC50: 1.5 µM
hepatoma
  % cleavage in hepatoma 1 hour: 0%
  % cleavage in hepatoma 24 hours: 0%
B 16 F 10
  IC50: 0.1 µM
[3]
  % cleavage in human blood 1 hour: 0%
  % cleavage in human blood 24 hours: 0%
[4]
  IC50 [μg/ml] CSF-induced proliferation of bone marrow parent cells of the mouse: 0.21 µg/mL
SW 480 [5]
  IC70 /μg/ml: 8 µg/mL (≈ 10 µM)
OVXF 899
  IC70 /μg/ml: 45 µg/mL (≈ 56.2 µM)
LXFS 538
  IC70 /μg/ml: 0.4 µg/mL (≈ 0.5 µM)
OVXF 1023
  IC70 /μg/ml: 12 µg/mL (≈ 15 µM)
MEXF 989
  IC70 /μg/ml: < 0.3 µg/mL
CXF 280
  IC70 /μg/ml: 70 µg/mL (≈ 87.5 µM)
LXFL 529
  IC70 /μg/ml: 0.9 µg/mL (≈ 1.12 µM)
HT 29 [6]
  IC70 /μg/ml: 6 µg/mL (≈ 7.5 µM)

## COC1C(O)C(C)OC(Oc2ccc(NC(=S)NC(CCCCN)C(=O)NC3C=CCC4CN(c5c(F)cc6c(=O)c(C(=O)O)cn(C7CC7)c6c5Cl)CC43)cc2)C1O [Example 12.5, N-{N^α -[O-(3-O-Methyl-β-L-fucosyl)-4-hydroxy-phenylamino-thiocarbonyl]-lysyl}-quinolone-a]
SW 480 [1]
  IC50: 1 µM
HT 29 [2]
  IC50: 4 µM
B 16 F 10
  IC50: 0.2 µM
SW 480 [5]
  IC70 /μg/ml: 10 µg/mL (≈ 11.7 µM)
OVXF 899
  IC70 /μg/ml: 55 µg/mL (≈ 64.1 µM)
LXFS 538
  IC70 /μg/ml: < 0.3 µg/mL
OVXF 1023
  IC70 /μg/ml: 9 µg/mL (≈ 10.5 µM)
MEXF 989
  IC70 /μg/ml: 0.5 µg/mL (≈ 0.583 µM)
CXF 280
  IC70 /μg/ml: < 0.3 µg/mL
LXFL 529
  IC70 /μg/ml: 2 µg/mL (≈ 2.33 µM)
HT 29 [6]
  IC70 /μg/ml: 11 µg/mL (≈ 12.8 µM)

## N-[N^α,N^ε -bis-(4-hydroxyphenylamino-thiocarbonyl)-lysyl-D-alanyl]-batracyline
Tumour cell lines
  IC50: > 250 µM

## N-[N^α,N^ε -bis-(4-hydroxyphenylamino-thiocarbonyl)-lysyl]-batracyline
Tumour cell lines
  IC50: > 250 µM
